The text below walks through data of ChEMBL document CHEMBL2040800 (J Med Chem, 2012).

The term chromatographic logD denotes a lipophilicity value derived from retention on a column. Broadly, the bioavailability is the share of a dose that reaches the circulation, judged against a reference dose that is usually intravenous. Broadly, the Tmax is the time from dosing to the highest level. What is called AUC(0-inf) is total exposure, with the tail of the curve extrapolated. By clearance is commonly meant the rate of elimination divided by the concentration. In general, ED50 refers to the dose that gives a 50% effect, or the effect in half of the subjects. By Cmax is commonly meant the highest concentration seen after dosing. As usually defined, the IC50 is the concentration that inhibits the measured activity by half.

The nature of data set [1]: Partition coefficient, log D of the compound at pH 7.4 by phase gradient HPLC analysis. The class given is physicochemical. The conditions noted are these: octanol/water.
The nature of data set [2]: Oral bioavailability in Sprague-Dawley rat at 5 mg/kg. In kind it is ADME, organism-based. The conditions noted are these: in vivo.
Data set [3] relates to Plasmodium berghei. Briefly: Antimalarial activity against Plasmodium berghei ANKA expressing GFP infected in Sprague-Dawley rat assessed as total cure from parasite at 50 mg/kg, po administered as 4 doses measured on day 30 post-infection by flow cytometry. In kind it is functional, organism-based. Further details: dose 50 mg/kg.
Data set [4] is described as follows: Tmax in Sprague-Dawley rat at 22.3 mg/kg, po. As to conditions: in vivo. In kind it is ADME, organism-based. Details: dose 22.3 mg/kg, route oral.
For data set [5], the system named is Plasmodium berghei. In words: Antimalarial activity against Plasmodium berghei ANKA expressing GFP infected in Sprague-Dawley rat assessed as reduction in parasitemia at 30 mg/kg, po administered as single dose measured on day 3 post-infection by flow cytometry. The class given is functional. Further details: scale not given: the % may be the effect or the level left. (In general: Flow cytometry measures light scatter and fluorescence of single cells or particles in a stream.)

Data set [6] in a line: AUC (0 to infinity) in Sprague-Dawley rat at 5 mg/kg, po. In kind it is ADME, organism-based. Further details: time infinity, dose 5 mg/kg, route oral. The conditions noted are these: plasma.
Data set [7] is described as follows: Half life in human liver microsomes at 1 uM. In kind it is ADME, Microsome.
Data set [8] is described as follows: AUC (0 to infinity) in Sprague-Dawley rat at […], iv. In kind it is ADME, organism-based. Further details: time infinity, dose 4.7 mg/kg, route intravenous. The conditions noted are these: plasma.
Data set [9] is described as follows: Intrinsic clearance in human liver microsomes at 1 uM up to 60 mins. In kind it is ADME, Microsome. As to conditions: read-out: CLH. For orientation: Liver microsomes are vesicles of endoplasmic reticulum, rich in cytochrome P450 enzymes.
Data set [10] is described as follows: Oral bioavailability in Sprague-Dawley rat at 22.3 mg/kg. In kind it is ADME, organism-based. As to conditions: in vivo.
Data set [11] is described as follows: Apparent terminal half life in Sprague-Dawley rat at […], iv. The conditions noted are these: in vivo, read-out: betat1/2(app) (converted). Details: dose 4.7 mg/kg, route intravenous. In kind it is ADME, organism-based.
In data set [12] the test system is Plasmodium berghei. In words: Antimalarial activity against Plasmodium berghei ANKA expressing GFP infected in Sprague-Dawley rat assessed as reduction in parasitemia at 50 mg/kg, po administered as 4 doses measured on day 4 post-infection by flow cytometry. Details: scale not given: the % may be the effect or the level left. In kind it is functional.
Data set [13] is described as follows: Total plasma clearance in Sprague-Dawley rat at […], iv. In kind it is ADME, organism-based. Further details: dose 4.7 mg/kg, route intravenous.
The subject of data set [14] is Plasmodium berghei. Briefly: Antimalarial activity against Plasmodium berghei ANKA expressing GFP infected in Sprague-Dawley rat assessed as mean survival days of host at 30 mg/kg, po administered as single dose. The class given is functional.
In data set [15] the test system is Plasmodium berghei. In words: Antimalarial activity against Plasmodium berghei ANKA expressing GFP infected in Sprague-Dawley rat assessed as mean survival days of host at 50 mg/kg, po administered as 4 doses. In kind it is functional.
Data set [16] is described as follows: AUC (0 to infinity) in Sprague-Dawley rat at 22.3 mg/kg, po. As to conditions: plasma. Further details: time infinity, dose 22.3 mg/kg, route oral. In kind it is ADME, organism-based.
Data set [17] in a line: Volume of distribution at steady state in Sprague-Dawley rat at […], iv. Further details: dose 4.7 mg/kg, route intravenous. The conditions noted are these: in vivo, read-out: Vdss. In kind it is ADME, organism-based.
Data set [18] concerns Plasmodium berghei. In words: Antimalarial activity against Plasmodium berghei ANKA expressing GFP infected in po dosed Sprague-Dawley rat assessed as reduction in parasitemia administered as single dose measured on day 3 post-infection by flow cytometry. In kind it is functional. The conditions noted are these: 72 h.
In data set [19] the test system is Plasmodium berghei. Briefly: Antimalarial activity against Plasmodium berghei ANKA expressing GFP infected in Sprague-Dawley rat assessed as mean survival days of host at 3 mg/kg, po administered as single dose. The class given is functional.
For data set [20], the system named is Plasmodium berghei. In words: Antimalarial activity against Plasmodium berghei ANKA expressing GFP infected in Sprague-Dawley rat assessed as host survival at 3 mg/kg, po administered as single dose measured 6 days post-infection. The class given is functional, organism-based. Details: dose 3 mg/kg.
The nature of data set [21]: Cmax in Sprague-Dawley rat at 22.3 mg/kg, po. In kind it is ADME, organism-based. Details: dose 22.3 mg/kg, route oral. As to conditions: in vivo.
In data set [22] the test system is Plasmodium berghei. Briefly: Antimalarial activity against Plasmodium berghei ANKA expressing GFP infected in Sprague-Dawley rat assessed as reduction in parasitemia at 3 mg/kg, po administered as single dose measured on day 3 post-infection by flow cytometry. Further details: scale not given: the % may be the effect or the level left. In kind it is functional.

Data set [23] can be described thus: Cmax in Sprague-Dawley rat at 5 mg/kg, po. The class given is ADME, organism-based. Details: dose 5 mg/kg, route oral. The conditions noted are these: in vivo.
The nature of data set [24]: Apparent terminal half life in Sprague-Dawley rat at 22.3 mg/kg, po. In kind it is ADME, organism-based. Details: dose 22.3 mg/kg, route oral. The conditions noted are these: in vivo, read-out: betat1/2(app) (converted).
Data set [25] in a line: Total blood clearance in Sprague-Dawley rat at […], iv. The class given is ADME, organism-based. Details: dose 4.7 mg/kg, route intravenous. As to conditions: whole blood.
Data set [26] in a line: Apparent terminal half life in Sprague-Dawley rat at 5 mg/kg, po. The class given is ADME, organism-based. Further details: dose 5 mg/kg, route oral. The conditions noted are these: in vivo, read-out: betat1/2(app) (converted).
The test system of data set [27] is Plasmodium berghei. Briefly: Antimalarial activity against Plasmodium berghei ANKA expressing GFP infected in Sprague-Dawley rat assessed as reduction in parasitemia at 10 mg/kg, po administered as single dose measured on day 3 post-infection by flow cytometry. In kind it is functional. Details: scale not given: the % may be the effect or the level left.
The subject of data set [28] is Plasmodium berghei. Briefly: Antimalarial activity against Plasmodium berghei ANKA expressing GFP infected in Sprague-Dawley rat assessed as mean survival days of host at 100 mg/kg, po administered as single dose. In kind it is functional.
The subject of data set [29] is Plasmodium berghei. In words: Antimalarial activity against Plasmodium berghei ANKA expressing GFP infected in Sprague-Dawley rat assessed as mean survival days of host at 10 mg/kg, po administered as single dose. The class given is functional.
Data set [30] can be described thus: Tmax in Sprague-Dawley rat at 5 mg/kg, po. In kind it is ADME, organism-based. Details: dose 5 mg/kg, route oral. The conditions noted are these: in vivo.
In data set [31] the test system is Plasmodium berghei. In words: Antimalarial activity against Plasmodium berghei ANKA expressing GFP infected in Sprague-Dawley rat assessed as reduction in parasitemia at 100 mg/kg, po administered as single dose measured on day 3 post-infection by flow cytometry. Details: scale not given: the % may be the effect or the level left. The class given is functional.

Data set [32] concerns Plasmodium falciparum. In words: Antimalarial activity against chloroquine-resistant Plasmodium falciparum K1 after 24 hrs by hypoxanthine incorporation assay. The class given is functional, organism-based. As to conditions: K1, 24 h.
Data set [33] in a line: Plasma protein binding in human by reverse phase gradient HPLC analysis. As to conditions: read-out: PPB (converted). The class given is ADME, cell-free.
Data set [34] in a line: Kinetic solubility of the compound in phosphate buffer after 30 mins by nephelometry at pH 6.5. In kind it is physicochemical. As to conditions: read-out: Kinetic_solubility.
The subject of data set [35] is Plasmodium berghei. Briefly: Antimalarial activity against Plasmodium berghei ANKA expressing GFP infected in Sprague-Dawley rat assessed as host survival at 30 mg/kg, po administered as single dose measured 6 days post-infection. The class given is functional, organism-based. Further details: dose 30 mg/kg.
In data set [36] the test system is Plasmodium falciparum. Briefly: Antimalarial activity against chloroquine-sensitive Plasmodium falciparum NF54 after 24 hrs by hypoxanthine incorporation assay. As to conditions: NF54, 24 h. In kind it is functional, organism-based.

Values after ≈ are worked out from the molar mass of the structure shown. Active and inactive are the calls of the source. The calls are words filed in the database; no cut-off is given here.

In data set [1], `COc1ccc(-c2cc(-c3ccc(S(C)(=O)=O)cc3)cnc2N)cn1` yielded a chromatographic logD of 2.2. Also, the bioavailability in [2] is 83%; in data set [10], greater than 100%. In addition, the result in data set [3] was Active. The Tmax in data set [4] is 1.75 h; in data set [30], 0.25 h. Also, the Activity in data set [5] is 99%; in data set [12], 99.8%; in data set [22], less than 40%; in data set [27] it was 82%; in [31], greater than 99.3%. The figures for the AUC(0-inf) in data set [6], in data set [8] and in data set [16] were 11.8 µM·h, 13.2 µM·h and 115 µM·h, respectively. Further, the half-life at 1 µM in data set [7] is greater than 1.65 h. In data set [9], the microsomal CLint at 1 µM was less than 28 µL/min/mg. The half-life was 8 h in data set [11], 6.5 h in [24] and 6.7 h in [26]. For the same compound, the clearance in [13] was 16.7 mL/min/kg; in data set [25] it was 18.3 mL/min/kg. Besides, the MSD in data set [14] is 8 days; in data set [15] it was greater than 30 days; in data set [19], 3 days; in data set [28], 21 days; in [29], 7 days. For the same compound, the Vd in data set [17] was 4.3 L/kg. Moreover, the ED50 in data set [18] came out at 4.7 mg/kg. The ED90 in data set [18] was 17 mg/kg. In addition, in data set [20], the outcome was inactive. Further, the Cmax in [21] was 21 µM; in [23] it was 5.4 µM.
For `CS(=O)(=O)c1ccc(-c2cnc(N)c(-c3ccc(C(N)=O)cc3)c2)cc1`, the chromatographic logD in data set [1] stood at 1.5. In addition, the IC50 in data set [32] and in [36] was 30 nM each time. For the same compound, the Activity in data set [5] is less than 40%; in [12], 66%; in data set [31], 64%. In data set [7], this compound yielded a half-life at 1 µM greater than 5.83 h. In addition, the microsomal CLint at 1 µM in [9] was less than 5 µL/min/mg. In data set [33], the fraction unbound is 0.216. The MSD came out at 3 days in data set [14], 7 days in [15] and 7 days in [28]. The solubility kinetic at 0.5 h in data set [34] is 25 µg/mL (≈ 68 µM). For the same compound, the outcome in [35] was inactive.
In [1], `Cc1ccc(-c2cc(-c3ccc(S(C)(=O)=O)cc3)cnc2N)cn1` displayed a chromatographic logD of 1.8. Further, the outcome in [3] was Active. In addition, the IC50 is 29 nM in data set [32] and 28 nM in data set [36]. Further, the Activity was 99.2% in [5], 99.8% in [12] and less than 40% in data set [22]. In data set [7], this compound yielded a half-life at 1 µM greater than 5.83 h. Moreover, the microsomal CLint at 1 µM in data set [9] was less than 5 µL/min/mg. Also, the fraction unbound in data set [33] was 0.256. Also, the results for the MSD in data set [14], in [15] and in data set [19] were 8 days, greater than 30 days and 3 days, respectively. In addition, in data set [20], the outcome was inactive. Moreover, the solubility kinetic at 0.5 h in data set [34] came to 50 µg/mL (≈ 147 µM).
